# In patent US7935724B2, “Thiophene and benzothiophene hydroxamic acid derivatives” (Merck HDAC Research, LLC, priority 2003, dated 2011):
# Where two headings read alike, the source gives them in different places.
# Biological target: T1, histone deacetylase, subtype 1 (HDAC1) (Homo sapiens, UniProt Q13547)
# T1 construct: Flag; made in house
# Assay: HDAC1-Flag assay (in vitro deacetylation assay)
# Format: biochemical
# Conditions: concentration for 50% inhibition of deacetylation, substrate at Km, unit inferred, text gives nm, read-out: HDAC Inhibition
# Method: Novel compounds were tested for their ability to inhibit histone deacetylase, subtype 1 (HDAC1) using an in vitro deacetylation assay. The enzyme source for this assay was an epitope-tagged human HDAC1 complex immuno-purified from stably expressing mammalian cells. The substrate consisted of a commercial product containing an acetylated lysine side chain (BIOMOL Research Laboratories, Inc., Plymouth Meeting, Pa.). Upon deacetylation of the substrate by incubation with the purified HDAC1 complex, a fluorophore is produced that is directly proportional to the level of deacetylation.
# [1] = Table 1, benzothiophene backbone
# T1 sequence (Q13547 whole entry): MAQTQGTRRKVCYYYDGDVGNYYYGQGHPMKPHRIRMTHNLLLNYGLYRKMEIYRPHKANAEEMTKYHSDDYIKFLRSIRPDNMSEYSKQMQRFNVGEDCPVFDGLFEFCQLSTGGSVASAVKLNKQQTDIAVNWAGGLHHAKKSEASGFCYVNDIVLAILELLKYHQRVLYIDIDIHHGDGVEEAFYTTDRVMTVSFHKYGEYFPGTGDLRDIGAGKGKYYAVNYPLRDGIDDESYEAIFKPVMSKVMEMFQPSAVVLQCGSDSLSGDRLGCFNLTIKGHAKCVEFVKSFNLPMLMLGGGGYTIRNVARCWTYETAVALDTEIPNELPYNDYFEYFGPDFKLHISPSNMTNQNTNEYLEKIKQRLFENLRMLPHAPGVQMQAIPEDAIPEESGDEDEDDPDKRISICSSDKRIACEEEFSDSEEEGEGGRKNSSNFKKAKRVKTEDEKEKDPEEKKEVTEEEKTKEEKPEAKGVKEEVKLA
IC50 [1] [nM],"IC50 (Table 2, thiophene backbone) [nM]",Structure (SMILES)
424,,O=C(NO)c1ccc2sc(C(=O)NO)cc2c1 [Compound 42]
60.5 ± 2.1,,Cc1ccc(S(=O)(=O)Nc2ccc3cc(C(=O)NO)sc3c2)cc1 [Compound 43]
162 ± 54.4,,Cc1ccc(S(=O)(=O)Nc2ccc3sc(C(=O)NO)cc3c2)cc1 [Compound 44]
737 ± 143,,COC(=O)c1ccc2sc(C(=O)NO)cc2c1 [Compound 45]
37,,O=C(CN1CCN(c2ccccc2)CC1)Nc1ccc2cc(C(=O)NO)sc2c1 [Compound 46]
24,,O=C(CN1CCc2ccccc2C1)Nc1ccc2cc(C(=O)NO)sc2c1 [Compound 47]
280,,COc1ccc(C(=O)Nc2ccc3cc(C(=O)NO)sc3c2)cc1OC [Compound 48]
35,,COc1ccc(CC(=O)Nc2ccc3cc(C(=O)NO)sc3c2)cc1OC [Compound 49]
14,,O=C(Cc1cccc(F)c1)Nc1ccc2cc(C(=O)NO)sc2c1 [Compound 50]
62,,COc1ccc(OC)c(CC(=O)Nc2ccc3cc(C(=O)NO)sc3c2)c1 [Compound 51]
20,,COc1ccccc1CC(=O)Nc1ccc2cc(C(=O)NO)sc2c1 [Compound 52]
54,,COc1cccc(CC(=O)Nc2ccc3sc(C(=O)NO)cc3c2)c1 [Compound 53]
,219,O=C(NO)c1ccc(-c2ccccc2)s1 [Compound 54]
,444 ± 54.4,COc1cccc(-c2ccc(C(=O)NO)s2)c1 [Compound 55]
,714 ± 122,O=C(Nc1ccc(C(=O)NO)s1)c1ccccc1 [Compound 56]
,363 ± 16.9,O=C(NO)c1ccc(NC(=O)c2cccc3ccccc23)s1 [Compound 57]
,730 ± 127,O=C(Nc1ccc(C(=O)NO)s1)c1ccc2ccccc2c1 [Compound 58]
,464 ± 65,O=C(NCc1ccccc1)c1ccc(-c2ccc(C(=O)NO)s2)cc1 [Compound 60]
,1000,O=C(NO)c1ccc(-c2cccc(CN(Cc3ccccc3)Cc3ccccc3)c2)s1 [Compound 61]

IC50 [1] [nM],"IC50 (Table 2, thiophene backbone) [nM]",Structure (SMILES)
,933 ± 22.6,O=C(NO)c1ccc(-c2cccc(CN(CCc3ccccc3)Cc3ccccc3)c2)s1 [Compound 62]
,397,O=C(/C=C/c1ccc(C(=O)NO)s1)Nc1ccccc1 [Compound 63]
,206,O=C(/C=C/c1ccc(C(=O)NO)s1)NCc1ccccc1 [Compound 64]
,41,O=C(/C=C/c1ccc(C(=O)NO)s1)NCCc1ccccc1 [Compound 65]
,70,O=C(/C=C/c1ccc(C(=O)NO)s1)NCCCc1ccccc1 [Compound 66]
,120,O=C(/C=C/c1ccc(C(=O)NO)s1)NCC1CCCCC1 [Compound 67]
,417,O=C(NO)c1ccc(-c2cccc(CN3CCc4ccccc4C3)c2)s1 [Compound 68]
,174,O=C(NO)c1ccc(-c2cccc(CN3CCN(c4ccccc4)CC3)c2)s1 [Compound 69]
,399,O=C(NO)c1ccc(-c2cccc(CN(Cc3ccccc3)Cc3cnc4ccccc4c3)c2)s1 [Compound 70]
,461,O=C(NO)c1ccc(-c2cccc(CN(Cc3ccccc3)Cc3ccnc4ccccc34)c2)s1 [Compound 71]
,570,O=C(NO)c1ccc(-c2cccc(CN(CCc3ccccc3)Cc3cnc4ccccc4c3)c2)s1 [Compound 72]
,705 ± 92.6,O=C(NO)c1ccc(-c2cccc(CN(CCc3ccccc3)Cc3ccnc4ccccc34)c2)s1 [Compound 73]
,461,O=C(NO)c1ccc(-c2cccc(CN(CCCc3ccccc3)Cc3cnc4ccccc4c3)c2)s1 [Compound 74]
,920 ± 569,O=C(NO)c1ccc(-c2cccc(CN(CCCc3ccccc3)Cc3ccnc4ccccc34)c2)s1 [Compound 75]
,1010,O=C(NO)c1ccc(-c2cccc(CN(CCCc3ccccc3)Cc3ccccc3)c2)s1 [Compound 76]
,666,O=C(/C=C/c1ccc(C(=O)NO)s1)NC1CCCCC1 [Compound 79]
,481,O=C(CCc1ccc(C(=O)NO)s1)Nc1ccccc1 [Compound 80]
,690,O=C(CCc1ccc(C(=O)NO)s1)NCCc1ccccc1 [Compound 81]
,526,O=C(CCc1ccc(C(=O)NO)s1)NCCCc1ccccc1 [Compound 82]

# The remaining lines, values behind:
Structure (SMILES),IC50 [1] [nM],"IC50 (Table 2, thiophene backbone) [nM]"
O=C(NO)c1cc2ccccc2s1 [Compound 1],672 ± 98.9,
O=C(NO)c1cc2cc(C(F)(F)F)ccc2s1 [Compound 2],609 ± 24.7,
O=C(Nc1ccc2sc(C(=O)NO)cc2c1)c1ccccc1 [Compound 3],106 ± 13.4,
O=C(CCc1ccccc1)Nc1ccc2sc(C(=O)NO)cc2c1 [Compound 4],61 ± 9.8,
O=C(Nc1ccc2cc(C(=O)NO)sc2c1)c1ccccc1 [Compound 5],204 ± 48.7,
O=C(NCc1ccccc1)Nc1ccc2cc(C(=O)NO)sc2c1 [Compound 7],52 ± 19.7,
CC(C)C(=O)Nc1ccc2cc(C(=O)NO)sc2c1 [Compound 9],156 ± 33.2,
O=C(NO)c1cc2ccc(NS(=O)(=O)c3ccccc3)cc2s1 [Compound 10],46.5 ± 23.3,
O=C(NO)c1cc2ccc(NS(=O)(=O)Cc3ccccc3)cc2s1 [Compound 11],41 ± 11.3,
O=C(NO)c1cc2ccc(NS(=O)(=O)c3ccc(-c4ccccc4)cc3)cc2s1 [Compound 12],45 ± 32.5,
O=C(Cc1ccccc1)Nc1ccc2sc(C(=O)NO)cc2c1 [Compound 15],31 ± 7,
O=C(/C=C/c1ccccc1)Nc1ccc2sc(C(=O)NO)cc2c1 [Compound 16],185 ± 52.3,
O=C(NO)c1cc2cc(NS(=O)(=O)c3ccc4ccccc4c3)ccc2s1 [Compound 17],52.5 ± 10.6,
O=C(NO)c1cc2cc(NS(=O)(=O)c3ccc(-c4ccccc4)cc3)ccc2s1 [Compound 18],91 ± 49.4,
O=C(NO)c1cc2cc(NS(=O)(=O)Cc3ccccc3)ccc2s1 [Compound 19],119 ± 21.9,
O=C(NO)c1cc2cc(N(Cc3ccccc3)Cc3ccccc3)ccc2s1 [Compound 20],1650 ± 1160,

Structure (SMILES),IC50 [1] [nM],"IC50 (Table 2, thiophene backbone) [nM]"
O=C(NO)c1cc2cc(N(Cc3ccccc3)Cc3ccccc3)ccc2s1 [Compound 21],949 ± 834,
O=C(NO)c1cc2cc([N+](=O)O)ccc2s1 [Compound 22],1740 ± 63.6,
COC(=O)c1ccc2cc(C(=O)NO)sc2c1 [Compound 23],627 ± 5.6,
O=C(NO)C(=O)Nc1ccc2cc(C(=O)NO)sc2c1 [Compound 24],1170 ± 214,
O=C(NO)c1cc2cc(NS(=O)(=O)c3ccccc3)ccc2s1 [Compound 26],166 ± 22.6,
O=C(NO)c1cc2cc(NS(=O)(=O)c3cccc4ccccc34)ccc2s1 [Compound 27],102 ± 24,
O=C(Nc1ccc2cc(C(=O)NO)sc2c1)c1cccnc1 [Compound 29],262 ± 33.9,
O=C(Nc1ccc2cc(C(=O)NO)sc2c1)OCc1ccccc1 [Compound 30],113 ± 33.2,
CCOC(=O)Nc1ccc2cc(C(=O)NO)sc2c1 [Compound 31],350 ± 13.4,
O=C(NCCc1ccccc1)Nc1ccc2cc(C(=O)NO)sc2c1 [Compound 32],88.5 ± 33.2,
CCOC(=O)Nc1ccc2sc(C(=O)NO)cc2c1 [Compound 34],238 ± 2.8,
CC(C)C(=O)Nc1ccc2sc(C(=O)NO)cc2c1 [Compound 35],149 ± 23.3,
O=C(Nc1ccc2sc(C(=O)NO)cc2c1)c1cccnc1 [Compound 37],157,
O=C(Nc1ccc2sc(C(=O)NO)cc2c1)c1ccc2ccccc2n1 [Compound 38],444,
O=C(NCc1ccccc1)Nc1ccc2sc(C(=O)NO)cc2c1 [Compound 40],72,
O=C(Nc1ccc2sc(C(=O)NO)cc2c1)c1ccc2ccccc2c1 [Compound 41],413,
